The record followed here is US20090299044A1 (priority 2006, published 2009).

Structures are written as SMILES. Bridge positions count the residues as written; N and C are the ends. Peptide text beside a SMILES is read from it.

One assay has as its target T1, human Kv1.1 (HEK293) (Homo sapiens, UniProt Q09470).
T1 construct: expressed in transfected cells; host or cells: HEK293
The experiment in a line: cell-based.

For the next assay, the target named is T2, human Kv1.3 (CHO) (Homo sapiens, UniProt P22001).
T2 construct: expressed in transfected cells; host or cells: CHO
T2 sequence (P22001 whole entry): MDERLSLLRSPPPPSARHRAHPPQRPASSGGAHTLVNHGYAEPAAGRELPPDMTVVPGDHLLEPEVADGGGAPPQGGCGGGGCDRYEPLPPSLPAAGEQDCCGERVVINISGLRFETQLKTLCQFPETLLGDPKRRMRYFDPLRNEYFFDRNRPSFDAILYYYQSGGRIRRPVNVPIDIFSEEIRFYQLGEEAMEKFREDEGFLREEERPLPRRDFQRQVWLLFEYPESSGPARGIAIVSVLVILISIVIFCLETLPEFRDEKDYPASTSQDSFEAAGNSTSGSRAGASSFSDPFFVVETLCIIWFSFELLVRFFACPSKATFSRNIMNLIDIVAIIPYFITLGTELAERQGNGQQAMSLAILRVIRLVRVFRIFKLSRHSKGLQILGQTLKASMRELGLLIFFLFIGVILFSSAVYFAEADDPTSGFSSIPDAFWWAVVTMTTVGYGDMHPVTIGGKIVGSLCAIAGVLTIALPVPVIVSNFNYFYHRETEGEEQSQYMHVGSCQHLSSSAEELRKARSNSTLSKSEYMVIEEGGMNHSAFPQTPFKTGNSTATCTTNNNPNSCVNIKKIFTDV
As to the kind of experiment: cell-based.

T1 sequence (Q09470 whole entry): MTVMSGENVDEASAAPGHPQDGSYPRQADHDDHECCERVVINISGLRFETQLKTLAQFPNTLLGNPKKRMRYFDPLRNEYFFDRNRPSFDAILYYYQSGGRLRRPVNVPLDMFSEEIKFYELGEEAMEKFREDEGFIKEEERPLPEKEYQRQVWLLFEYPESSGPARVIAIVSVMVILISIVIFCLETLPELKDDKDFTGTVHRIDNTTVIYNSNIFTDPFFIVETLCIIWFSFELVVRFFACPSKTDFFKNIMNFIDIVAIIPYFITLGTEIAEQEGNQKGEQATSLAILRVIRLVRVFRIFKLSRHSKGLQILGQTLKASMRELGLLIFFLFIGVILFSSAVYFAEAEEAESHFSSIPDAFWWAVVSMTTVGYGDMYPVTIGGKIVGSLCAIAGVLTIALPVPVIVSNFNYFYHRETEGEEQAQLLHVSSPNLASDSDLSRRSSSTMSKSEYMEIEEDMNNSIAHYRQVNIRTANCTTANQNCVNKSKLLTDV

As a reminder, the IC50 is the concentration that gives 50% inhibition. Lower therefore signals greater potency in that assay. Take `CC[C@H](C)[C@@H]1NC(=O)[C@H](CCCCN)NC(=O)[C@@H](NC(=O)[C@H](CCCCN)NC(=O)[C@@H](NC(=O)[C@H](CC(N)=O)NC(=O)[C@@H](NC(=O)[C@@H](NC(=O)[C@@H](NC(=O)CN)C(C)C)[C@@H](C)CC)[C@@H](C)CC)C(C)C)CSSC[C@@H]2NC(=O)[C@H](CCCCN)NC(=O)CNC(=O)[C@H](Cc3ccccc3)NC(=O)[C@H](CCCNC(=N)N)NC(=O)[C@H](CCSC)NC(=O)[C@H](C)NC(=O)[C@H](C)NC(=O)[C@H](CCCCN)NC(=O)[C@H](CCCCN)NC(=O)[C@@H]3CSSC[C@@H](C(=O)N[C@H](C(=O)N4CCC[C@H]4C(=O)N[C@@H](CCCCN)C(=O)O)[C@@H](C)O)NC(=O)[C@H](Cc4c[nH]cn4)NC(=O)[C@H](CSSC[C@H](NC(=O)[C@H](CCC(N)=O)NC(=O)[C@H](CCCNC(=N)N)NC(=O)[C@H](CO)NC1=O)C(=O)N[C@@H](CC(C)C)C(=O)N[C@@H](CCC(=O)O)C(=O)N1CCC[C@H]1C(=O)N3)NC(=O)[C@H](CCCCN)NC(=O)CNC(=O)[C@H](CC(N)=O)NC(=O)[C@H](CCSC)NC2=O` [G22A] (H-GVIINVKCKISRQCLEPCKKAAMRFGKCMNGKCHCTPK-OH; disulfide 8-28, 14-33, 18-35): the IC50 at human Kv1.1 (HEK293) and against human Kv1.3 (CHO) was greater than 3 nM throughout.

Regarding `CC[C@H](C)[C@@H]1NC(=O)[C@H](CCCCN)NC(=O)[C@@H](NC(=O)[C@H](CCCCN)NC(=O)[C@@H](NC(=O)[C@H](CC(N)=O)NC(=O)[C@@H](NC(=O)[C@@H](NC(=O)[C@@H](NC(=O)CN)C(C)C)[C@@H](C)CC)[C@@H](C)CC)C(C)C)CSSC[C@@H]2NC(=O)[C@H](CCCCN)NC(=O)CNC(=O)[C@H](Cc3ccccc3)NC(=O)[C@H](CCCNC(=N)N)NC(=O)[C@H](CCSC)NC(=O)[C@H](CCC(=O)O)NC(=O)[C@H](C)NC(=O)[C@H](CCCCN)NC(=O)[C@H](CCCCN)NC(=O)[C@@H]3CSSC[C@@H](C(=O)N[C@H](C(=O)N4CCC[C@H]4C(=O)N[C@@H](CCCCN)C(=O)O)[C@@H](C)O)NC(=O)[C@H](Cc4c[nH]cn4)NC(=O)[C@H](CSSC[C@H](NC(=O)[C@H](CCC(N)=O)NC(=O)[C@H](CCCNC(=N)N)NC(=O)[C@H](CO)NC1=O)C(=O)N[C@@H](CC(C)C)C(=O)N[C@@H](CCC(=O)O)C(=O)N1CCC[C@H]1C(=O)N3)NC(=O)[C@H](CCCCN)NC(=O)CNC(=O)[C@H](CC(N)=O)NC(=O)[C@H](CCSC)NC2=O` [G22E] (H-GVIINVKCKISRQCLEPCKKAEMRFGKCMNGKCHCTPK-OH; disulfide 8-28, 14-33, 18-35), the figures for the half-maximal inhibitory concentration (IC50) against human Kv1.1 (HEK293) and against human Kv1.3 (CHO) were 0.00256 nM and 0.0139 nM, respectively.

For `CC[C@H](C)[C@@H]1NC(=O)[C@H](CCCCN)NC(=O)[C@@H](NC(=O)[C@H](CCCCN)NC(=O)[C@@H](NC(=O)[C@H](CC(N)=O)NC(=O)[C@@H](NC(=O)[C@@H](NC(=O)[C@@H](NC(=O)CN)C(C)C)[C@@H](C)CC)[C@@H](C)CC)C(C)C)CSSC[C@@H]2NC(=O)[C@H](CCCCN)NC(=O)CNC(=O)[C@H](Cc3ccccc3)NC(=O)[C@H](CCCNC(=N)N)NC(=O)[C@H](CCSC)NC(=O)[C@H](CCCNC(=N)N)NC(=O)[C@H](C)NC(=O)[C@H](CCCCN)NC(=O)[C@H](CCCCN)NC(=O)[C@@H]3CSSC[C@@H](C(=O)N[C@H](C(=O)N4CCC[C@H]4C(=O)N[C@@H](CCCCN)C(=O)O)[C@@H](C)O)NC(=O)[C@H](Cc4c[nH]cn4)NC(=O)[C@H](CSSC[C@H](NC(=O)[C@H](CCC(N)=O)NC(=O)[C@H](CCCNC(=N)N)NC(=O)[C@H](CO)NC1=O)C(=O)N[C@@H](CC(C)C)C(=O)N[C@@H](CCC(=O)O)C(=O)N1CCC[C@H]1C(=O)N3)NC(=O)[C@H](CCCCN)NC(=O)CNC(=O)[C@H](CC(N)=O)NC(=O)[C@H](CCSC)NC2=O` [G22R] (H-GVIINVKCKISRQCLEPCKKARMRFGKCMNGKCHCTPK-OH; disulfide 8-28, 14-33, 18-35), the concentration for half-maximal inhibition (IC50) amounted to 0.00349 nM against human Kv1.1 (HEK293) and 0.0237 nM on human Kv1.3 (CHO).

Take `CC[C@H](C)[C@@H]1NC(=O)[C@H](CCCCN)NC(=O)[C@@H](NC(=O)[C@H](CCCCN)NC(=O)[C@@H](NC(=O)[C@H](CC(N)=O)NC(=O)[C@@H](NC(=O)[C@@H](NC(=O)[C@@H](NC(=O)CN)C(C)C)[C@@H](C)CC)[C@@H](C)CC)C(C)C)CSSC[C@@H]2NC(=O)[C@H](CCCCN)NC(=O)[C@H](C)NC(=O)[C@H](Cc3ccccc3)NC(=O)[C@H](CCCNC(=N)N)NC(=O)[C@H](CCSC)NC(=O)CNC(=O)[C@H](C)NC(=O)[C@H](CCCCN)NC(=O)[C@H](CCCCN)NC(=O)[C@@H]3CSSC[C@@H](C(=O)N[C@H](C(=O)N4CCC[C@H]4C(=O)N[C@@H](CCCCN)C(=O)O)[C@@H](C)O)NC(=O)[C@H](Cc4c[nH]cn4)NC(=O)[C@H](CSSC[C@H](NC(=O)[C@H](CCC(N)=O)NC(=O)[C@H](CCCNC(=N)N)NC(=O)[C@H](CO)NC1=O)C(=O)N[C@@H](CC(C)C)C(=O)N[C@@H](CCC(=O)O)C(=O)N1CCC[C@H]1C(=O)N3)NC(=O)[C@H](CCCCN)NC(=O)CNC(=O)[C@H](CC(N)=O)NC(=O)[C@H](CCSC)NC2=O` [G26A] (H-GVIINVKCKISRQCLEPCKKAGMRFAKCMNGKCHCTPK-OH; disulfide 8-28, 14-33, 18-35): the IC50 against human Kv1.1 (HEK293) was found to be 0.733 nM; on human Kv1.3 (CHO), 0.711 nM.

As to `CC[C@H](C)[C@@H]1NC(=O)[C@H](CCCCN)NC(=O)[C@@H](NC(=O)[C@H](CCCCN)NC(=O)[C@@H](NC(=O)[C@H](CC(N)=O)NC(=O)[C@@H](NC(=O)[C@@H](NC(=O)[C@@H](NC(=O)CN)C(C)C)[C@@H](C)CC)[C@@H](C)CC)C(C)C)CSSC[C@@H]2NC(=O)[C@H](CCCCN)NC(=O)[C@H](CCC(=O)O)NC(=O)[C@H](Cc3ccccc3)NC(=O)[C@H](CCCNC(=N)N)NC(=O)[C@H](CCSC)NC(=O)CNC(=O)[C@H](C)NC(=O)[C@H](CCCCN)NC(=O)[C@H](CCCCN)NC(=O)[C@@H]3CSSC[C@@H](C(=O)N[C@H](C(=O)N4CCC[C@H]4C(=O)N[C@@H](CCCCN)C(=O)O)[C@@H](C)O)NC(=O)[C@H](Cc4c[nH]cn4)NC(=O)[C@H](CSSC[C@H](NC(=O)[C@H](CCC(N)=O)NC(=O)[C@H](CCCNC(=N)N)NC(=O)[C@H](CO)NC1=O)C(=O)N[C@@H](CC(C)C)C(=O)N[C@@H](CCC(=O)O)C(=O)N1CCC[C@H]1C(=O)N3)NC(=O)[C@H](CCCCN)NC(=O)CNC(=O)[C@H](CC(N)=O)NC(=O)[C@H](CCSC)NC2=O` [G26E] (H-GVIINVKCKISRQCLEPCKKAGMRFEKCMNGKCHCTPK-OH; disulfide 8-28, 14-33, 18-35), the 50% inhibitory concentration (IC50) against human Kv1.1 (HEK293) and against human Kv1.3 (CHO) was greater than 3.33 nM each time.

In the case of `CC[C@H](C)[C@@H]1NC(=O)[C@H](CCCCN)NC(=O)[C@@H](NC(=O)[C@H](CCCCN)NC(=O)[C@@H](NC(=O)[C@H](CC(N)=O)NC(=O)[C@@H](NC(=O)[C@@H](NC(=O)[C@@H](NC(=O)CN)C(C)C)[C@@H](C)CC)[C@@H](C)CC)C(C)C)CSSC[C@@H]2NC(=O)[C@H](CCCCN)NC(=O)[C@H](CCCNC(=N)N)NC(=O)[C@H](Cc3ccccc3)NC(=O)[C@H](CCCNC(=N)N)NC(=O)[C@H](CCSC)NC(=O)CNC(=O)[C@H](C)NC(=O)[C@H](CCCCN)NC(=O)[C@H](CCCCN)NC(=O)[C@@H]3CSSC[C@@H](C(=O)N[C@H](C(=O)N4CCC[C@H]4C(=O)N[C@@H](CCCCN)C(=O)O)[C@@H](C)O)NC(=O)[C@H](Cc4c[nH]cn4)NC(=O)[C@H](CSSC[C@H](NC(=O)[C@H](CCC(N)=O)NC(=O)[C@H](CCCNC(=N)N)NC(=O)[C@H](CO)NC1=O)C(=O)N[C@@H](CC(C)C)C(=O)N[C@@H](CCC(=O)O)C(=O)N1CCC[C@H]1C(=O)N3)NC(=O)[C@H](CCCCN)NC(=O)CNC(=O)[C@H](CC(N)=O)NC(=O)[C@H](CCSC)NC2=O` [G26R] (H-GVIINVKCKISRQCLEPCKKAGMRFRKCMNGKCHCTPK-OH; disulfide 8-28, 14-33, 18-35), the 50% inhibitory concentration (IC50) against human Kv1.1 (HEK293) and on human Kv1.3 (CHO) was greater than 3.33 nM throughout.

Consider `CC[C@H](C)[C@@H]1NC(=O)[C@H](CCCCN)NC(=O)[C@@H](NC(=O)[C@H](CCCCN)NC(=O)[C@@H](NC(=O)[C@H](CC(N)=O)NC(=O)[C@@H](NC(=O)[C@@H](NC(=O)[C@@H](NC(=O)CN)C(C)C)[C@@H](C)CC)[C@@H](C)CC)C(C)C)CSSC[C@@H]2NC(=O)[C@H](CCCCN)NC(=O)CNC(=O)[C@H](Cc3ccccc3)NC(=O)[C@H](CCCNC(=N)N)NC(=O)[C@H](CCSC)NC(=O)CNC(=O)[C@H](C)NC(=O)[C@H](CCCCN)NC(=O)[C@H](CCCCN)NC(=O)[C@@H]3CSSC[C@@H](C(=O)N[C@H](C(=O)N4CCC[C@H]4C(=O)N[C@@H](CCCCN)C(=O)O)[C@@H](C)O)NC(=O)[C@H](Cc4c[nH]cn4)NC(=O)[C@H](CSSC[C@H](NC(=O)[C@H](CCC(N)=O)NC(=O)[C@H](CCCNC(=N)N)NC(=O)[C@H](CO)NC1=O)C(=O)N[C@@H](CC(C)C)C(=O)N[C@@H](CCC(=O)O)C(=O)N1CCC[C@H]1C(=O)N3)NC(=O)[C@H](CCCCN)NC(=O)[C@H](C)NC(=O)[C@H](CC(N)=O)NC(=O)[C@H](CCSC)NC2=O` [G31A] (H-GVIINVKCKISRQCLEPCKKAGMRFGKCMNAKCHCTPK-OH; disulfide 8-28, 14-33, 18-35), for which the values for the IC50 against human Kv1.1 (HEK293) and against human Kv1.3 (CHO) were 0.0618 nM and 0.0702 nM, respectively.

As to `CC[C@H](C)[C@@H]1NC(=O)[C@H](CCCCN)NC(=O)[C@@H](NC(=O)[C@H](CCCCN)NC(=O)[C@@H](NC(=O)[C@H](CC(N)=O)NC(=O)[C@@H](NC(=O)[C@@H](NC(=O)[C@@H](NC(=O)CN)C(C)C)[C@@H](C)CC)[C@@H](C)CC)C(C)C)CSSC[C@@H]2NC(=O)[C@H](CCCCN)NC(=O)CNC(=O)[C@H](Cc3ccccc3)NC(=O)[C@H](CCCNC(=N)N)NC(=O)[C@H](CCSC)NC(=O)CNC(=O)[C@H](C)NC(=O)[C@H](CCCCN)NC(=O)[C@H](CCCCN)NC(=O)[C@@H]3CSSC[C@@H](C(=O)N[C@H](C(=O)N4CCC[C@H]4C(=O)N[C@@H](CCCCN)C(=O)O)[C@@H](C)O)NC(=O)[C@H](Cc4c[nH]cn4)NC(=O)[C@H](CSSC[C@H](NC(=O)[C@H](CCC(N)=O)NC(=O)[C@H](CCCNC(=N)N)NC(=O)[C@H](CO)NC1=O)C(=O)N[C@@H](CC(C)C)C(=O)N[C@@H](CCC(=O)O)C(=O)N1CCC[C@H]1C(=O)N3)NC(=O)[C@H](CCCCN)NC(=O)[C@H](CCC(=O)O)NC(=O)[C@H](CC(N)=O)NC(=O)[C@H](CCSC)NC2=O` [G31E] (H-GVIINVKCKISRQCLEPCKKAGMRFGKCMNEKCHCTPK-OH; disulfide 8-28, 14-33, 18-35), the IC50 on human Kv1.1 (HEK293) came to 0.00237 nM; against human Kv1.3 (CHO), 0.012 nM.
